# Assay results: patent US8729053B2, “Nuclear factor kappa B pathway inhibitor composition and use of same” (The United States of America, as represented by the …, priority 2008, dated 2014)
# Tests used:
# IKKβ = target: T1, IKKβ (Homo sapiens, UniProt O14920); assay: K-LISA IKKβ Inhibitor Screening Kit in vitro assay; assay type: biochemical; conditions: 0.1 to 100 μM, incubated with ATP
# T1 construct: purchased Calbiochem
# T1 sequence (O14920 1-756): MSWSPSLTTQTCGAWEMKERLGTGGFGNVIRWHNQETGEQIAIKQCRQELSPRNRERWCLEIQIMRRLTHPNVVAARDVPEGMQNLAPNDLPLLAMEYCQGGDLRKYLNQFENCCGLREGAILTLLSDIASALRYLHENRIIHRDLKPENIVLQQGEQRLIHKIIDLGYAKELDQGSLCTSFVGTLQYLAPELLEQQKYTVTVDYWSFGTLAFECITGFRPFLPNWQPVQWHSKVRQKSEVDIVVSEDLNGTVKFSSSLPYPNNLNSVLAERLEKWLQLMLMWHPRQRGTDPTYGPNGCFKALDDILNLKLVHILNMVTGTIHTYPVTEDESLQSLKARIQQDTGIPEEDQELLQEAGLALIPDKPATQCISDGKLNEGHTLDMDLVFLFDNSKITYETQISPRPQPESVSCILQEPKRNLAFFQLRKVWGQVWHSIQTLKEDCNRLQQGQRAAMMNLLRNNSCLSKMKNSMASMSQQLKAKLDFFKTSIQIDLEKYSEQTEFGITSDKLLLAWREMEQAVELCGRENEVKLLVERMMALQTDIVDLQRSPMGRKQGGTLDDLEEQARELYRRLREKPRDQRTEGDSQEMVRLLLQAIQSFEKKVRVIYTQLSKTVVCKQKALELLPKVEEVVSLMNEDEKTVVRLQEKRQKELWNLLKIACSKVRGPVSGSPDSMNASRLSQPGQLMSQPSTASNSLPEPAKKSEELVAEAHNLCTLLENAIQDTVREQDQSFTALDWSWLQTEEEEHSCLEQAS
# Description: In an attempt to determine whether compound I interferes with ATP binding to the catalytic site, the activity of compound I was measured with fully activated, phosphorylated IKKα or IKKβ. […] However, whether this compound interacts outside of the ATP binding pocket of IKK as an ATP non-competitive inhibitor similar to BMS-345541 is unknown. […] Luciferase activities with TPA induction alone were set at 100% and the relative activities with TPA in the presence of compounds are shown.
# AP-1 = AP-1 luciferase reporter assay in HEK293 cells; assay type: cell-based; conditions: HEK293, TPA 10 ng/ml 18 hours
# Description: (§1) All expression plasmids were transiently transfected into HEK293 cells in a 96-well plate (0.1 μg/well) by using Effectene transfection reagent (Qiagen, Valencia, Calif.) according to the manufacturer's manual. HEK293 cells were maintained in Dulbecco's modified Eagle medium (Sigma, St. Louis, Mo.) supplemented with 10% fetal bovine serum (Atlanta Biologicals, Lawrenceville, Ga.) and incubated at 37° C. in a 5% CO2 incubator. After 24 hrs incubation, the medium was changed to DMEM with 0.2% FBS, and the transfectants were exposed to various concentrations of compound I and TPA (10 ng/ml). Cells were lysed with passive lysis buffer and the luciferase assay was performed using the Firefly-Luciferase reporter assay system (Promega, Madison, Wis.) and MLX Luminometer (Dynex Technology, Chantilly, Va.).
# Three different luciferase reporter genes, AP-1 reporter containing four times TRE consensus originated from GCN4 and SRE reporter purchased from Stratagene (La Jolla, Calif.) respectively are as described previously (Suzukawa et al., Environ. Health Perspect., 2002, 110, 865-70). NFκB reporter is driven by five times NFκB responsive element inserted into Cis-reporter backbone (Stratagene, La Jolla, Calif.). Others include mouse COX-2 promoter region from −203 to +70 relative to the transcription site inserted into pTIS10L vector (Kim and Fischer, J. Biol. Chem., 1998, 273, 27686-94), human uPAR promoter region from −141 to +47 relative to transcription start site in pGL3 vector (Wang et al., Eur. J. Biochem., 2000, 267, 3248-54), and human VEGF promoter sequence from −2274 to +379 inserted into the pGL2 vector (Ding et al., J. Biol. Chem., 2006, 281, 9093-100). […]
# NFκB = NFκB luciferase reporter assay in HEK293 cells; assay type: cell-based; conditions: at 1 to 8 μM, TPA 10 ng/ml 18 hours
# Description: as §1
# Three different luciferase reporter genes, AP-1 reporter containing four times TRE consensus originated from GCN4 and SRE reporter purchased from Stratagene (La Jolla, Calif.) respectively are as described previously (Suzukawa et al., Environ. Health Perspect., 2002, 110, 865-70). NFκB reporter is driven by five times NFκB responsive element inserted into Cis-reporter backbone (Stratagene, La Jolla, Calif.). Others include mouse COX-2 promoter region from −203 to +70 relative to the transcription site inserted into pTIS10L vector (Kim and Fischer, J. Biol. Chem., 1998, 273, 27686-94), human uPAR promoter region from −141 to +47 relative to transcription start site in pGL3 vector (Wang et al., Eur. J. Biochem., 2000, 267, 3248-54), and human VEGF promoter sequence from −2274 to +379 inserted into the pGL2 vector (Ding et al., J. Biol. Chem., 2006, 281, 9093-100).
# To evaluate whether the compound I biological activity can imitate TAM67 specificity, three different transcriptional promoter reporters were used, AP-1, NFκB, and SRE (Serum response element) in luciferase reporter assays (FIG. 1A: The transfected cells were pre-treated with varied concentrations of compound I or DMSO for 1 hour before 18 hours stimulation by TPA (10 ng/ml) or DMSO as vehicle. An asterisk (*) indicates a separate experiment with NFκB dependent luciferase only. Assays were performed with two independent experiments each in quadruplicate.). All three activities were induced by TPA but only induction of AP-I and NFκB were inhibited by TAM67. The SRE reporter was used as a specificity control and indicator of cell proliferation. TPA-induced SRE activity was not repressed by TAM67 when coexpressed with the SRE-Luc reporter in HEK293 cells. The same concentration (10 ng/ml, 16.2 nM) and incubation time (18 hrs) were used for TPA induction as previously used for the high throughput screen (HTS) (Ruocco et al., J. Biomol. Screen., 2007, 12, 133-9) along with 1 h pretreatment of compound I. The screening results had tested concentrations as high as 40 μM compound I with cell numbers showing 95.5+/−6.2% of DMSO control (ave+/− sd, n=3) by the XTT assay in HEK293T cells.
# [1] = test system: SRE (Serum response element); assay: SRE luciferase reporter assay in HEK293 cells; assay type: cell-based; conditions: HEK293, TPA 10 ng/ml 18 hours
# Description: as §1
# Three different luciferase reporter genes, AP-1 reporter containing four times TRE consensus originated from GCN4 and SRE reporter purchased from Stratagene (La Jolla, Calif.) respectively are as described previously (Suzukawa et al., Environ. Health Perspect., 2002, 110, 865-70). NFκB reporter is driven by five times NFκB responsive element inserted into Cis-reporter backbone (Stratagene, La Jolla, Calif.). […]
SMILES,Inhibition of phosphorylation of IκBα peptide substrate catalyzed by IKKβ (IKKβ),Inhibition of TPA-induced AP-1 luciferase activity (AP-1),Inhibition of NFκB-Luciferase (NFκB),TPA-induced SRE luciferase activity [1]
"Cc1ccc2nc(NCCN)c3ncc(C)n3c2c1 [BMS-345541, reference compound]",no inhibition,without inhibition,dose-dependent inhibition,–
"O=C(O)c1cc(/N=N/c2ccc(S(=O)(=O)Nc3ccccn3)cc2)ccc1O [sulfasalazine, reference compound]",–,–,–,no sparing
